Experimental data published in US20190152962A1, “CYCLOPROPYL DERIVATIVES AS ROR-GAMMA MODULATORS” (CADILA HEALTHCARE LIMITED, priority 2016, published 2019).

Key:
[1] = system: secreted IL-17 in peripheral blood mononuclear cells (PBMCs); test: Human IL-17 inhibition assay; type: cell-based; conditions: PBMC, anti-CD3/anti-CD28, 72 h, read-out: IL17 IC50
Procedure: Peripheral blood mononuclear cells (PBMCs) were isolated from healthy volunteers and subjected to T cell polarization assay. Two million PBMCs were placed on anti-CD3 (Biolegend, US) coated 96-well plates and 1 μg/mL of anti-CD28 (Biolegend, US) was added along with RORγt inhibitors or the vehicle control and incubated at 37° C. and 5% CO2 for 72 h. At the end of incubation time, the supernatant was collected and analyzed for secreted IL-17 using sandwich enzyme immunoassay (Mabtech AB, Sweden). The results were analyzed using Graphpad Prism and the half-maximal inhibitory concentrations (IC50) of the test compounds were derived (Table 4).

[2] = biological target: T1, full length human RORγt (Homo sapiens, UniProt P51449); test: 5×RORE based luciferase assay; type: cell-based; conditions: COS-7 cells transfected with 5×RORE-Luc and hRORγt, 18-20 h treatment
T1 construct: full length human RORγt together in COS-7 cells; expressed in transfected cells; host or cells: COS-7
T1 sequence (P51449 1-497 isoform P51449-2): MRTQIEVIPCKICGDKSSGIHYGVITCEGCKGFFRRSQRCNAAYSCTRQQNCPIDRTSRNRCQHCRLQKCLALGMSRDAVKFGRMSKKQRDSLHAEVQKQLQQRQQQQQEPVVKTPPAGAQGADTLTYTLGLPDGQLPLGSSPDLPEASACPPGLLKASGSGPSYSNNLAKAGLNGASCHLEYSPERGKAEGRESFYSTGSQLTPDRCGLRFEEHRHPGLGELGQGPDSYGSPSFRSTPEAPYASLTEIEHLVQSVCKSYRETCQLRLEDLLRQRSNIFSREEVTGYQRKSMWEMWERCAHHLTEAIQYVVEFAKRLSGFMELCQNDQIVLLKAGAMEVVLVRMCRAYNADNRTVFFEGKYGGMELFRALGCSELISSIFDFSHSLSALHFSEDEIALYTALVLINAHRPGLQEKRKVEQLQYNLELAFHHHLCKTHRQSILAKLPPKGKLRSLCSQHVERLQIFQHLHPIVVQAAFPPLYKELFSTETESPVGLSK
Procedure: Human RORγt (hRORγt) inhibitors were screened in RORE (RORγt Response Element) based Luciferase assay by transient transfection of 5×RORE (5 tandem repeats of RORγt Response Element) and full length human RORγt together in COS-7 cells. COS-7 cells were maintained as monolayer in complete DMEM (High Glucose) medium in presence of 2 mM Glutamin and 1× Sodium Pyruvate. Day before transfection, 15000 cells were seeded in 96 well cell culture plate in 100 μl antibiotic free medium and incubated at 37° C. in 5% CO2 containing humidified chamber O/N. Prior to transfection, cells were fed with fresh complete growth medium and incubated until the addition of transfection complex. Transfection complex for the required numbers of wells were prepared from pGL2-promoter-5×RORE-Luc plasmid, pcDNA3.1 (+)-hRORγt expression plasmid, pβ-GAL plasmid (transfection control), and Lipofectamine 3000 (Invitrogen). 50 μl of transfection complex were added in 100 μl of complete medium to respective wells, mixed gently and plate was incubated for 5-6 h at 37° C. in 5% CO2 containing humidified chamber. After 5 h of transfection, content of the wells were aspirated and cells were treated with increasing concentration of RORγt inverse agonist in medium devoid of serum with a final DMSO concentration of 0.2% for 18-20 h at 37° C. in 5% CO2 containing humidified chamber. Next day, cells were lysed and the lysates were assayed for luciferase and β-GAL activity using Promega's luciferase assay system and an in-house made β-GAL assay buffer respectively. Luciferase signals were normalized with β-GAL and % activity was determined with respect to that of 10 nM control ligand.
IC50 of selected compounds were then determined by nonlinear regression analysis of % activity, plotted against compound concentration (Table 4).

Row | SMILES | IC50 [1] [nM] | IC50 [2] [nM]
1 | CCS(=O)(=O)c1ccc(CC(=O)Nc2cc(Cl)c(C3(c4noc(-c5ccc(F)cc5)n4)CC3)c(Cl)c2)cc1 [Example 1, N-(3,5-dichloro-4-(1-(5-(4-fluorophenyl)-1,2,4-oxadiazol-3-yl)cyclopropyl)phenyl)-2-(4-(ethylsulfonyl)phenyl)acetamide] | 6.6 | 
2 | CCS(=O)(=O)c1ccc(CC(=O)Nc2cc(Cl)c(C3(c4noc(-c5ccccc5)n4)CC3)c(Cl)c2)cc1 [Example 2, N-(3,5-dichloro-4-(1-(5-phenyl-1,2,4-oxadiazol-3-yl)cyclopropyl)phenyl)-2-(4-(ethylsulfonyl)phenyl)acetamide] | 25 | 7
3 | CCS(=O)(=O)c1ccc(CC(=O)Nc2cc(Cl)c(C3(c4noc(-c5ccc(C(F)(F)F)cc5)n4)CC3)c(Cl)c2)cc1 [Example 3, N-(3,5-dichloro-4-(1-(5-(4-(trifluoromethyl)phenyl)-1,2,4-oxadiazol-3-yl)cyclopropyl)phenyl)-2-(4-(ethylsulfonyl)phenyl)acetamide] | 38.3 | 8.5
4 | CCS(=O)(=O)c1ccc(CC(=O)Nc2cc(Cl)c(C3(c4noc(-c5ccc(C)cc5)n4)CC3)c(Cl)c2)cc1 [Example 4, N-(3,5-dichloro-4-(1-(5-(p-tolyl)-1,2,4-oxadiazol-3-yl)cyclopropyl)phenyl)-2-(4-(ethylsulfonyl)phenyl)acetamide] | 15 | 1.46
5 | CCS(=O)(=O)c1ccc(CC(=O)Nc2cc(Cl)c(C3(c4noc(-c5ccc(F)c(F)c5)n4)CC3)c(Cl)c2)cc1 [Example 5, N-(3,5-dichloro-4-(1-(5-(3,4-difluorophenyl)-1,2,4-oxadiazol-3-yl)cyclopropyl)phenyl)-2-(4-(ethylsulfonyl)phenyl)acetamide] | 17 | 5.6
6 | CCS(=O)(=O)c1ccc(CC(=O)Nc2cc(Cl)c(C3(c4noc(-c5cccc(F)c5)n4)CC3)c(Cl)c2)cc1 [Example 6, N-(3,5-dichloro-4-(1-(5-(3-fluorophenyl)-1,2,4-oxadiazol-3-yl)cyclopropyl)phenyl)-2-(4-(ethylsulfonyl)phenyl)acetamide] | 35 | 3.4
7 | CCS(=O)(=O)c1ccc(CC(=O)Nc2cc(Cl)c(C3(c4noc(-c5ccc(F)cc5F)n4)CC3)c(Cl)c2)cc1 [Example 7, N-(3,5-dichloro-4-(1-(5-(2,4-difluorophenyl)-1,2,4-oxadiazol-3-yl)cyclopropyl)phenyl)-2-(4-(ethylsulfonyl)phenyl)acetamide] | 10.4 | 8.7
8 | CCS(=O)(=O)c1ccc(CC(=O)Nc2cc(Cl)c(C3(c4noc(-c5c(F)cc(F)cc5F)n4)CC3)c(Cl)c2)cc1 [Example 8, N-(3,5-dichloro-4-(1-(5-(2,4,6-trifluorophenyl)-1,2,4-oxadiazol-3-yl)cyclopropyl)phenyl)-2-(4-(ethylsulfonyl)phenyl)acetamide] | 2.7 | 11
9 | CCS(=O)(=O)c1ccc(CC(=O)Nc2cc(Cl)c(C3(c4noc(-c5ccc(F)cc5Cl)n4)CC3)c(Cl)c2)cc1 [Example 9, N-(3,5-dichloro-4-(1-(5-(2-chloro-4-fluorophenyl)-1,2,4-oxadiazol-3-yl)cyclopropyl)phenyl)-2-(4-(ethylsulfonyl)phenyl)acetamide] | 9.2 | 8.9
10 | CCS(=O)(=O)c1ccc(CC(=O)Nc2cc(Cl)c(C3(c4noc(-c5ccc(F)c(Cl)c5)n4)CC3)c(Cl)c2)cc1 [Example 10, N-(3,5-dichloro-4-(1-(5-(3-chloro-4-fluorophenyl)-1,2,4-oxadiazol-3-yl)cyclopropyl)phenyl)-2-(4-(ethylsulfonyl)phenyl)acetamide] | 9.4 | 6.8
11 | CCS(=O)(=O)c1ccc(CC(=O)Nc2cc(Cl)c(C3(c4noc(-c5ccc(Cl)c(Cl)c5)n4)CC3)c(Cl)c2)cc1 [Example 11, N-(3,5-dichloro-4-(1-(5-(3,4-dichlorophenyl)-1,2,4-oxadiazol-3-yl)cyclopropyl)phenyl)-2-(4-(ethylsulfonyl)phenyl)acetamide] | 14.7 | 15.9
12 | CCS(=O)(=O)c1ccc(CC(=O)Nc2cc(Cl)c(C3(c4noc(-c5ccc(Cl)cc5Cl)n4)CC3)c(Cl)c2)cc1 [Example 12, N-(3,5-dichloro-4-(1-(5-(2,4-dichlorophenyl)-1,2,4-oxadiazol-3-yl)cyclopropyl)phenyl)-2-(4-(ethylsulfonyl)phenyl)acetamide] | 10.6 | 5.9
13 | CCS(=O)(=O)c1ccc(CC(=O)Nc2cc(Cl)c(C3(c4noc(-c5ccc(Cl)cc5)n4)CC3)c(Cl)c2)cc1 [Example 13, N-(3,5-dichloro-4-(1-(5-(4-chlorophenyl)-1,2,4-oxadiazol-3-yl)cyclopropyl)phenyl)-2-(4-(ethylsulfonyl)phenyl)acetamide] | 27.2 | 8.9
14 | CCS(=O)(=O)c1ccc(CC(=O)Nc2cc(Cl)c(C3(c4noc(-c5ccc(C#N)cc5)n4)CC3)c(Cl)c2)cc1 [Example 14, N-(3,5-dichloro-4-(1-(5-(4-cyanophenyl)-1,2,4-oxadiazol-3-yl)cyclopropyl)phenyl)-2-(4-(ethylsulfonyl)phenyl)acetamide] | 9.5 | 1.3
15 | CCS(=O)(=O)c1ccc(CC(=O)Nc2cc(Cl)c(C3(c4noc(-c5ccc(OC)cc5F)n4)CC3)c(Cl)c2)cc1 [Example 15, N-(3,5-dichloro-4-(1-(5-(2-fluoro-4-methoxyphenyl)-1,2,4-oxadiazol-3-yl)cyclopropyl)phenyl)-2-(4-(ethylsulfonyl)phenyl)acetamide] | 27 | 5.7
16 | CCS(=O)(=O)c1ccc(CC(=O)Nc2cc(Cl)c(C3(c4noc(-c5cccs5)n4)CC3)c(Cl)c2)cc1 [Example 16, N-(3,5-dichloro-4-(1-(5-(thiophen-2-yl)-1,2,4-oxadiazol-3-yl)cyclopropyl)phenyl)-2-(4-(ethylsulfonyl)phenyl)acetamide] | 42 | 0.9
17 | CCS(=O)(=O)c1ccc(CC(=O)Nc2cc(Cl)c(C3(c4noc(-c5ccc(Cl)s5)n4)CC3)c(Cl)c2)cc1 [Example 17, N-(3,5-dichloro-4-(1-(5-(5-chlorothiophen-2-yl)-1,2,4-oxadiazol-3-yl)cyclopropyl)phenyl)-2-(4-(ethylsulfonyl)phenyl)acetamide] | 6 | 1.9
18 | CCS(=O)(=O)c1ccc(CC(=O)Nc2cc(Cl)c(C3(c4noc(-c5ccc(C)s5)n4)CC3)c(Cl)c2)cc1 [Example 18, N-(3,5-dichloro-4-(1-(5-(5-methylthiophen-2-yl)-1,2,4-oxadiazol-3-yl)cyclopropyl)phenyl)-2-(4-(ethylsulfonyl)phenyl)acetamide] | 23.7 | 3.9
19 | CCS(=O)(=O)c1ccc(CC(=O)Nc2cc(Cl)c(C3(c4noc(-c5cccnc5)n4)CC3)c(Cl)c2)cc1 [Example 19, N-(3,5-dichloro-4-(1-(5-(pyridin-3-yl)-1,2,4-oxadiazol-3-yl)cyclopropyl)phenyl)-2-(4-(ethylsulfonyl)phenyl)acetamide] | 27 | 1.58
20 | CCS(=O)(=O)c1ccc(CC(=O)Nc2cc(Cl)c(C3(c4noc(-c5ccc(OC)nc5)n4)CC3)c(Cl)c2)cc1 [Example 20, N-(3,5-dichloro-4-(1-(5-(6-methoxypyridin-3-yl)-1,2,4-oxadiazol-3-yl)cyclopropyl)phenyl)-2-(4-(ethylsulfonyl)phenyl)acetamide] | 11.3 | 15.8
21 | CCS(=O)(=O)c1ccc(CC(=O)Nc2cc(Cl)c(C3(c4noc(C(C)C)n4)CC3)c(Cl)c2)cc1 [Example 23, N-(3,5-dichloro-4-(1-(5-isopropyl-1,2,4-oxadiazol-3-yl)cyclopropyl)phenyl)-2-(4-(ethylsulfonyl)phenyl)acetamide] | 21 | 1.4
